Counter-ions that a name gives are not always drawn. Each block holds one molecule with its values, some of them ahead of it.
Experiments:
[1] = Storage in a dessicator at a humidity level of 33% (hygroscopicity, conversion to hydrous form); type: physicochemical
From the text: The present invention also relates to a novel anhydrous hydrochloride salt of Moxifloxacin, herein called form IV. […] More particular, the invention relates to form IV characterized by an X-ray powder diffraction pattern with peaks at about 10.0, 13.2, 15.3, 17.2 and 24.4 degrees 2 theta. The invention also relates to form IV characterized by infrared absorption bands at about 2704, 1720, 1434, 1312 and 1273 cm^−1.
The new anhydrous form IV may preferably be prepared by desolvating Moxifloxacin hydrochloride methylene dichloride solvate by drying in vacuum at about 100° C. […] The invention also relates to pharmaceutical compositions comprising form IV.

[2] = Stability of solvate under air drying conditions (desolvation)
[3] = General solubility / stability of the crystalline salt; type: physicochemical; conditions: qualitative statement
[4] = anhydrous vs monohydrate hydrochloride; disclosed in WO 95/07902; cited from earlier work
[5] = compared with monohydrate salt form; disclosed in WO 95/07902; cited from earlier work
[6] = dessicator, humidity level 33%, 48 hours

Molecule: Moxifloxacine Hydrochloride Methylene Dichloride Solvate
hygroscopicity (water uptake) ([1]; 1 day at 33% relative humidity): not hygroscopic | stability / desolvation under air drying conditions [2]: stable and does not desolvate

Molecule: COc1c(C)c2c(c(O)c1C/C=C(\C)CCC(=O)OCCN1CCOCC1)C(=O)OC2 [mycophenolate mofetil hydrochloride]
increase in solubility over the monohydrate salt form [4]: two-fold | stability characteristics [5]: possessing the stability characteristics of the monohydrate salt form

Molecule: Raloxifene Hydrochloride THF hemisolvate
stability / desolvation under air drying conditions [2]: stable and does not desolvate

Continued, values first:

solubility and/or stability [3]: good solubility and/or stability
Molecule: COc1c(N2C[C@@H]3CCCN[C@@H]3C2)c(F)cc2c(=O)c(C(=O)O)cn(C3CC3)c12 [Moxifloxacine hydrochloride]

moisture content after humidity storage ([1]; after 48 hours at humidity level 33%): 0.6% | hygroscopicity relative to other anhydrous forms ([1]; compared with anhydrous form II (US 5849 752, Bayer) and anhydrous form B (WO 2005/054240, Chemi Spa)): lower hygroscopicity | XRPD pattern after humidity storage [1, 6]: no alteration | conversion to a hydrous form [1, 6]: does not convert to a hydrous form | moisture content before humidity storage ([1]; initial value): 0.5%
Molecule: COc1c(N2C[C@@H]3CCCN[C@@H]3C2)c(F)cc2c(=O)c(C(=O)O)cn(C3CC3)c12.Cl [Moxifloxacine Hydrochloride Anhydrous Form IV]

Source: patent US20100204470A1, “METHOD FOR SALT PREPARATION” (Sandoz AG, priority 2006, published 2010)
